{
  "source": "patent US20230295292A1",
  "about": "“METHODS OF TREATING CANCERS AND ENHANCING EFFICACY OF GPRC5DXCD3 BISPECIFIC ANTIBODIES” (Janssen Biotech, Inc., priority 2021, published 2023)",
  "key": {"T cells": {"test_system": "T cells", "test": "Phase 1b TRIMM-2 study: biomarker / pharmacodynamic assessments (T cells, cytokines)", "type": "in vivo, human", "source_text": "BM-localized MM cells were identified and analysed for cell surface marker expression levels by staining 1.0×10^6 cells/mL with HuMax-003 (CD38) FITC (this antibody binds to an epitope distinct from the epitope bound by daratumumab, Janssen Pharmaceuticals), CD138 PE, CD56 PC7, CD45 Krome Orange (all Beckman Coulter), CD269 (BCMA) APC (Biolegend), CD274 (PD-L1) BV421 and CD19 APC-H7 (both Becton Dickinson). BM or PB immune cell subsets were identified and analysed for cell surface marker expression levels by staining 1.0×10^6 cells/mL with CD45 Krome Orange, CD56 PC7 (both Beckman Coulter), CD14 APC-H7, CD19 APC-H7, CD3 V450, CD4 APC-H7 or PE, CD8 FITC, CD45-RA APC. CD127 PE.Cy7, CD62L PE, CD274 […] BV421, CD16 APC, HLA-DR APC-H7 (all Becton Dickinson) and CD25 PE (Dako) or with CD4 BUV395 (BD Biosciences), CD8 BUV737 (BD\nBiosciences), PD-1 BV421 (BD Biosciences), TIM-3 BV650 (BD Biosciences), CD3 BV711 (BD Biosciences), CD45RO BV786 (BD Biosciences). CD38 Humab-003-FITC (Janssen). CD45RA PerCP-Cy5.5 (BD Biosciences). HLA-DR PE (BD Biosciences), LAG-3 PE-eF610 (ThermoFisher), CD25 PE-Cy7 (BD Biosciences), CCR7 AF647 (BD Biosciences), CD127 APC-eF780 (ThermoFisher). All BM samples were analysed within 24 hours from the time the sample was collected.\nFlow cytometry was performed using a 7-laser LSRFORTESSA (Becton Dickinson). Fluorescent labeled beads (CS&T beads, Becton Dickinson) were used daily to monitor the performance of the flow cytometer and verify optical path and stream flow. […] Compensation beads were used to determine spectral overlap, and compensation was automatically calculated using Diva software. Flow cytometry data were analyzed using FACS Diva software.\nCytokines [interferon-gamma (IFN-γ), interleukin (IL)-2, IL-6, IL-8, IL-10, and tumor necrosis factor-alpha (TNF-α)] in the cell culture supernatants were analyzed using V-Plex proinflammatory Panel 1 Human Kit (Meso Scale Diagnostics), according to the manufacturer’s protocol. […]"}, "[1]": {"test": "Phase 1b TRIMM-2 study: pharmacokinetics (serum concentrations)", "type": "in vivo, human", "settings": "in the presence of daratumumab", "experimental": "Blood and serum or plasma samples were collected for assessments of pharmacokinetics and immunogenicity (e.g., antibodies to daratumumab, rHuPH20, or talquetamab). Selection of the dose regimen (dose level and frequency) for dose expansion was determined based on the pharmacokinetic and pharmacodynamic information obtained during dose escalation. A sample for the pharmacokinetic and immunogenicity analysis was collected at scheduled time and any time a suspected IRR or CRS event (in case of a CRS event, samples were collected at onset, 24 hours and 72 hours) was observed during the study.\nEach serum sample was evenly divided into 3 aliquots (1 for pharmacokinetics and immunogenicity of daratumumab, 1 for pharmacokinetics and immunogenicity of talquetamab, and 1 backup). […] For the pharmacokinetics analysis, serum samples were analyzed to determine concentrations of daratumumab and talquetamab using validated, specific, and sensitive assay methods. Pharmacokinetic parameters include, but are not limited to, area under the curve (AUC)(0-t), AUCtau, Cmax, and Tmax would be calculated if sufficient data were available for estimation. […] For the rHuPH20 immunogenicity assessments, plasma samples were screened for antibodies binding to rHuPH20 and were assessed in confirmatory and titer assays as necessary."}, "[2]": {"test_system": "relapsed or refractory multiple myeloma", "test": "Phase 1b TRIMM-2 study: best response by IMWG criteria, investigator assessment"}, "[3]": {"settings": "Tal 400 µg/kg (SC3 and SC6) + 800 µg/kg (SC7 and SC15) with Dara 1800 mg, 56 response evaluable subjects"}, "[4]": {"settings": "Tal Total (all Tal cohorts with Dara, with or without Pom), n=108 evaluable"}},
  "data": [
    {"substance": "daratumumab: anti-CD38 monoclonal antibody approved for MM treatment; HC SEQ ID NO: 13, LC SEQ ID NO: 14; given SC with rHuPH20 [reference compound]", "values": [
      {"measurement": "Proportion of CD38+/CD8+ T cells", "setting": "T cells; after initial daratumumab dosing on C1D1", "result": "declined"}
    ]},
    {"substance": "talquetamab", "values": [
      {"measurement": "Pharmacokinetic profile of talquetamab", "setting": "[1]", "result": "consistent with the profile of observed in the phase 1 talquetamab monotherapy"},
      {"measurement": "CR or better (sCR + CR)", "setting": "[2]; Overall Total, n=186 evaluable", "result": "46 (24.7%)"},
      {"measurement": "Clinical benefit (Overall response + MR)", "setting": "[2]; Overall Total, n=186 evaluable", "result": "146 (78.5%)"},
      {"measurement": "Complete response (CR)", "setting": "[2]; Overall Total, n=186 evaluable", "result": "28 (15.1%)"},
      {"measurement": "Minimal response (MR)", "setting": "[2]; Overall Total, n=186 evaluable", "result": 0},
      {"measurement": "Not evaluable (NE)", "setting": "[2]; Overall Total, n=186 evaluable", "result": "1 (1.2%)"},
      {"measurement": "Overall response (sCR+CR+VGPR+PR)", "setting": "[2]; Overall Total, n=186 evaluable", "result": "146 (78.5%)"},
      {"measurement": "Partial response (PR)", "setting": "[2]; Overall Total, n=186 evaluable", "result": "22 (11.8%)"},
      {"measurement": "Progressive disease (PD)", "setting": "[2]; Overall Total, n=186 evaluable", "result": "11 (5.9%)"},
      {"measurement": "Stringent complete response (sCR)", "setting": "[2]; Overall Total, n=186 evaluable", "result": "18 (9.7%)"},
      {"measurement": "VGPR or better (sCR + CR + VGPR)", "setting": "[2]; Overall Total, n=186 evaluable", "result": "124 (66.7%)"},
      {"measurement": "Very good partial response (VGPR)", "setting": "[2]; Overall Total, n=186 evaluable", "result": "78 (41.9%)"},
      {"measurement": "Very good partial response (VGPR), Unconfirmed", "setting": "[2]; Overall Total, n=186 evaluable", "result": 11},
      {"measurement": "CR or better (sCR + CR)", "setting": "[2]; [3]", "result": "16 (28.6%)"},
      {"measurement": "Clinical benefit (Overall response + MR)", "setting": "[2]; [3]", "result": "45 (80.4%)"},
      {"measurement": "Complete response (CR)", "setting": "[2]; [3]", "result": "9 (16.1%)"},
      {"measurement": "Complete response (CR), Unconfirmed", "setting": "[2]; [3]", "result": 3},
      {"measurement": "Minimal response (MR)", "setting": "[2]; [3]", "result": 0},
      {"measurement": "Not evaluable (NE)", "setting": "[2]; [3]", "result": 0},
      {"measurement": "Overall response (sCR+CR+VGPR+PR)", "setting": "[2]; [3]", "result": "45 (80.4%)"},
      {"measurement": "Partial response (PR)", "setting": "[2]; [3]", "result": "9 (16.1%)"},
      {"measurement": "Partial response (PR), Unconfirmed", "setting": "[2]; [3]", "result": 4},
      {"measurement": "Progressive disease (PD)", "setting": "[2]; [3]", "result": "3 (5.4%)"},
      {"measurement": "Stringent complete response (sCR)", "setting": "[2]; [3]", "result": "7 (12.5%)"},
      {"measurement": "Stringent complete response (sCR), Unconfirmed", "setting": "[2]; [3]", "result": 0},
      {"measurement": "VGPR or better (sCR + CR + VGPR)", "setting": "[2]; [3]", "result": "36 (64.3%)"},
      {"measurement": "Very good partial response (VGPR)", "setting": "[2]; [3]", "result": "20 (35.7%)"},
      {"measurement": "Very good partial response (VGPR), Unconfirmed", "setting": "[2]; [3]", "result": 5},
      {"measurement": "CR or better (sCR + CR)", "setting": "[2]; [4]", "result": "28 (25.9%)"},
      {"measurement": "Clinical benefit (Overall response + MR)", "setting": "[2]; [4]", "result": "89 (82.4%)"},
      {"measurement": "Complete response (CR)", "setting": "[2]; [4]", "result": "14 (13.0%)"},
      {"measurement": "Minimal response (MR)", "setting": "[2]; [4]", "result": 0},
      {"measurement": "Not evaluable (NE)", "setting": "[2]; [4]", "result": 0},
      {"measurement": "Overall response (sCR+CR+VGPR+PR)", "setting": "[2]; [4]", "result": "89 (82.4%)"},
      {"measurement": "Partial response (PR)", "setting": "[2]; [4]", "result": "18 (16.7%)"},
      {"measurement": "Progressive disease (PD)", "setting": "[2]; [4]", "result": "4 (3.7%)"},
      {"measurement": "Stringent complete response (sCR)", "setting": "[2]; [4]", "result": "14 (13.0%)"},
      {"measurement": "VGPR or better (sCR + CR + VGPR)", "setting": "[2]; [4]", "result": "71 (65.7%)"},
      {"measurement": "Very good partial response (VGPR)", "setting": "[2]; [4]", "result": "43 (39.8%)"},
      {"measurement": "Very good partial response (VGPR), Unconfirmed", "setting": "[2]; [4]", "result": 13},
      {"measurement": "Frequency of CD38+ T cells", "setting": "T cells; FIG. 4, following talquetamab dosing in the presence of daratumumab 1800 mg", "result": "increase"},
      {"measurement": "CD38+ CD8+ T cells", "setting": "T cells; after the initial doses of talquetamab despite concurrent daratumumab dosing", "result": "induction"}
    ]}
  ]
}
